Reference: patent US6037463A, “Enzymatic RNA molecules that cleave mutant N-RAS” (priority 1996, dated 2000)

Columns and labels:
[1] = system: synthetic oligoribonucleotide substrate of 15 nucleotides, mutant N-ras mRNA (codon 13); test: Kinetics with synthetic substrates (multiple turnover), ribozymes against mutant N-ras; format: biochemical; details: Table IA, Michaelis-Menten conditions; for kcat: 37° C., 10 mM MgCl2
Protocol: (§1) In one investigation, short synthetic oligoribonucleotides of 15 nucleotides chain length served as substrates. Cleavage kinetics of all ribozymes were carried out under Michaelis-Menten conditions. […] Ribozymes RE990 or RE1035 against the wild type mRNA as well as their substrate complexes on the other hand reveal Tm values of approximately 52° C.
(§2) Kinetic constants Km and kcat were determined from Eadie-Hofstee plots carried out with 5'-^32 P-labeled substrate. The RNA substrate was labeled by reaction with T4 polynucleotide kinase and [γ-^32P]-ATP. 5'-end labeled substrate was purified from [γ-^32 P]-ATP with CENTRICON-3 tubes. Ribozyme and substrate were heated separately for 1 min at 75° C. in 50 mM Tris-Cl (pH 7.5). After cooling to 37° C. for 5 min, 100 mM MgCl2 were added to a final concentration of 10 mM, and the solution was incubated for an additional 5 min at 37° C. Multiple turnover reactions were carried out in a volume of 100 μl with concentrations of substrate between 20-500 nM and ribozyme concentrations from 2 to 5 nM in 50 mM Tris-Cl (pH 7.5) and 10 mM MgCl2 at 37° C. Reactions were initiated by addition of ribozyme. The reaction was stopped by mixing the ribozymes with an equal volume of stop solution (8 M urea, 25 mM EDTA). The cleavage reactions were analyzed on 20% denaturing polyacrylamide gels (8 M urea) and scanned on a Molecular Dynamic Phosphorimaging system.

[2] = system: synthetic substrate, mutant N-ras mRNA (codon 13); test: Melting curves (Tm) of ribozyme-substrate complexes, mutant; format: binding; details: ribozyme-substrate complex
Protocol: as §1
(§3) UV temperature curves were measured at 260 nm using a Varian Cary-1 UV/VIS-spectrophotometer. The target was prepared by dissolving the ribozyme in a buffer containing 50 mM Tris-Cl (pH 7.5) and 10 mM MgCl2. The sample was transferred in a cuvette with a 10 mm path length. The ribozyme was denatured at 80° C. for 5 min, and subsequently the substrate RNA and substrate DNA were added and the whole mixture was renatured at 1° C./min. Melting curves at 260 nm were performed by heating the solution in the cuvette at 0.75° C./min and acquiring absorbance data every 0.5° C. step until 80° C. was reached. The Tm value and thermodynamic parameters of transition were obtained by fitting data of a two transition state model with the GraFit version 2.0 from Sigma Chemicals Co. software using the method of Marky and Breslauer, Biopolymers 26:1601 (1987).

[3] = system: in vitro transcribed wild type N-ras mRNA; test: Kinetics with in vitro transcribed RNA (single-turnover), wild type; format: biochemical; details: for cleavage of wild type N-ras mRNA: ribozymes directed against mutant mRNA
Source text: (§4) In a further investigation, RNA containing the mutant or wild type N-ras sequence from transcription initiation site to termination site was synthesized by in vitro transcription. In order to achieve efficient mRNA cleavage, the target sequence of the substrate (NUX-triplet, N=A,G,C,U; X=C,A,U) is not allowed to be double-stranded or part of a stable hairpin. The in vitro transcribed RNA served as substrate for five ribozymes mentioned above. The catalytic efficiency was examined under "single-turnover" conditions to detect the splice products.
(§5) For in vitro transcription, pMS5-NRAS, pMS5A-NRAS and pMS5B-NRAS were linearized by EcoRI digestion, phenol-extracted and ethanol-precipitated. Transcription was carried out in a 100 μl mixture containing 50 ng/μl linearized plasmid DNA, 10 mM DTT, 40 mM Tris-Cl (pH 7.5), 50 mM NaCl, 8 mM MgCl2, 2 mM spermidine, 500 μM rNTP's, 0.8 U/μl RNAse-lnhibitor, 2 μCi/μl [α-^32 P]-ATP and 2.5 U/μl T7 RNA Polymerase. A one-hour incubation at 37° C. was followed by the addition of 25 Units of DNAsel, and the mixture was incubated for an additional 30 min at 37° C. After subsequent phenol extraction, the aqueous phase was transferred into a CENTRICON-100 tube and centrifuged at 3,400 U/min for 30 min. The RNA-solution was checked for homogeneity by UV absorption and 6% analytical PAGE (8 M urea). The solution was stored frozen at -20° C.
(§6) The cleavage efficiency under "single-turnover" conditions was determined in a volume of 10 μl using 20-1200 nM ribozyme, 50 mM Tris-Cl (pH 7.5) and 10 mM MgCl2. The reaction was initiated by addition of RNA substrate to a final concentration of 10 nM substrate over 1 h at 37° C. The reaction was stopped by mixing 8 μl of stop solution to each reaction. The reaction was analyzed on 6% denaturing polyacrylamide gels and scanned on a Molecular Dynamics Phosphor Imager. The single turnover kcat /Km values were determined as described by Heidenreich et al., J. Biol. Chem. 267:1904 (1992).

[4] = system: in vitro transcribed mutant N-ras mRNA (codon 13); test: Kinetics with in vitro transcribed RNA (single-turnover), mutant; format: biochemical
Source text: as §4, §5, §6

[5] = system: N-ras transformed NIH3T3 cells (mutation in codon 13, clones 2 and 4); test: Colony-forming soft agar assay, retrovirally mediated ribozyme; format: cell-based; details: beyond the effect of the retroviral vector alone
Protocol: The cells of the constitutively N-ras expressing clones 2 and 4 (mutation in codon 13) were subcultured in soft agar using the colony-forming agar assay of Cowley et al., Cell 77:841 (1994). The colony-forming agar assay is a semisolid method in which cells are suspended in a 0.3% agar upper layer and plated out over a 0.5% agar lower layer in Petri dishes. The lower layer was prepared by heating a 2.5% solution of agar in deionized water. After cooling the agar to 45° C. in a water bath, an agar mix of 0.5% agar was prepared by combining 25 ml of 1×DMEM medium, 10 ml of 2.5% agar, 10 ml of 2×DMEM medium, and 5 ml of fetal calf serum. One milliliter samples of the agar mix were pipetted into 35 mm Petri culture dishes and stored at 4° C. for 30 minutes.
The upper layer was prepared by adding 0.2 ml of agar mix to 1 ml of about 5×10^4 cells/ml suspension, and adding DMEM medium to a total volume of 1.7 ml. One milliliter samples were pipette onto bottom agar layers and incubated for 14-21 days at 37° C. […]
The soft agar cultures were incubated for […] at 37° C. and 5% CO2. The reduction in transformed N-ras NIH3T3 cells was analyzed by counting cell clusters under a microscope. The soft agar preparations were set up in quadruplicate for each construct and the mean values were calculated, as presented in Table VII.

[6] = system: synthetic oligoribonucleotide substrate of 15 nucleotides, wild-type N-ras mRNA (codon 64, 89 or 103); test: Kinetics with synthetic substrates (multiple turnover), ribozymes against wild-type N-ras; format: biochemical; details: for Km / kcat: Table IA, Michaelis-Menten conditions; for kcat: 37° C., 10 mM MgCl2
Protocol: as §1, §2

[7] = system: synthetic substrate, wild type N-ras mRNA; test: Melting curves (Tm) of ribozyme-substrate complexes, wild type; format: binding; details: ribozyme-substrate complex
Protocol: as §1, §3

[8] = Table IIA, single-turnover, transcribed N-ras mRNA
[9] = Table III, modified ribozymes, transcribed N-ras mRNA
[10] = Table IIB, single-turnover, transcribed RNA

5'-CCAACACCUGAUGAGCGUUAGCGAAACCUGCU-3' (chemistry not given here)
Km [1]: 82 nM
kcat [1]: 0.015 s⁻¹
Tm [2]: approximately 48 °C
cleavage of wild type N-ras mRNA [3]: do not cleave
Km [4, 8]: 71 nM
kcat [4, 8]: 266 10^6 × s^-1
Km [4, 9]: 71 nM
kcat [4, 9]: 266 10^6 × s^-1
reversion of the malignant phenotype [5]: about 18%

5'-UCCCAACCUGAUGAGCGUUAGCGAAACACCUG-3' (chemistry not given here)
Km [1]: 65 nM
kcat [1]: 0.012 s⁻¹
Tm [2]: approximately 48 °C
cleavage of wild type N-ras mRNA [3]: do not cleave
Km [4, 8]: 113 nM
kcat [4, 8]: 137 10^6 × s^-1
Km [4, 10]: 113 nM
kreact [4, 10]: 137 10^6 s^-1
Km [4, 9]: 113 nM
kcat [4, 9]: 137 10^6 × s^-1

RE917: ribozyme against codon 64 of the wild-type N-ras mRNA, SEQ ID NO:14 (GGCACUGCUGAUGAGCGUUAGCUAAACUCUUC; chemistry not given here)
Km [3, 8]: 63 nM
kcat [3, 8]: 59 10^6 × s^-1
Km [3, 10]: 63 nM
kreact [3, 10]: 59 10^6 s^-1
Km [3, 9]: 63 nM
kcat [3, 9]: 59 10^6 × s^-1
Km [6]: 78 nM
kcat [6]: 0.013 s⁻¹

RE990: ribozyme against codon 89 of the wild-type N-ras mRNA, SEQ ID NO:15 (CGCAAAUCUGAUGAGCGUUAGCGAAACUUGCU; chemistry not given here)
Km [3, 8]: 234 nM
kcat [3, 8]: 72 10^6 × s^-1
kcat /Km [6]: much less catalytic efficiency
Km [6]: 404 nM
kcat [6]: 0.004 s⁻¹
Tm [7]: approximately 52 °C

RE1035: ribozyme against codon 103 of the wild-type N-ras mRNA, SEQ ID NO:16 (AGUCUUUCUGAUGAGCGUUAGCGAAACUCGCU; chemistry not given here)
Km [3, 8]: 425 nM
kcat [3, 8]: 44 10^6 × s^-1
Km [6]: 277 nM
kcat [6]: 0.013 s⁻¹
Tm [7]: approximately 52 °C
